Test results: patent US20260365682A1, “MODULATORS OF TNF-ALPHA ACTIVITY” (Forward Therapeutics, Inc., priority 2022, published 2026)
Read-outs that look alike come from different tables or passages of the source.

Target: T1, TNF-α (Homo sapiens, UniProt P01375)
T1 construct: purchased R&D 210-TA-020/CF
Experiment: TNF-α Induced HEK Blue Cellular Assay (secreted alkaline phosphatase expression, QUANTI-Blue)
Type: cell-based
Settings: HEK Blue TNFα reporter cells, TNF-α 100 μg/ml, 24 hrs at 37° C., inhibition of secreted alkaline phosphatase
Outline: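 HEK Blue TNFα reporter cells (10,000/well) in DMEM with 10% FBS received compound ([…] to 0.5 nM final) and TNF-α at […] final for 24 h at 37° C. Secreted alkaline phosphatase read with QUANTI-Blue at 620 nm. IC50 came from a 4-parameter logistic fit after normalising to unstimulated and stimulated DMSO controls.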

T1 sequence (P01375 77-233 limits assumed): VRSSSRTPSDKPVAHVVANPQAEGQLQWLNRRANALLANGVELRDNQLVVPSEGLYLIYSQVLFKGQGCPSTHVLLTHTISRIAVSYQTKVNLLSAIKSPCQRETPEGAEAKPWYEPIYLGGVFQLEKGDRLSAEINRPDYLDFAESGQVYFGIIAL

Work on `[2H]C([2H])([2H])N1C(=O)c2cccc(OC(F)F)c2[C@H]2C[C@@H]1c1nc3ccc(C#CCCO)cc3n12` [Example 111, (7R,14R)-1-(difluoromethoxy)-11-(4-hydroxybut-1-yn-1-yl)-6-(methyl-d3)-6,7-dihydro-7,14-methanobenzo[f]benzo[4,5]imidazo[1,2-a][1,4]diazocin-5(14H)-one] yielded an IC50 (read-out: IC50 value) of less than 100 nM.

`[2H]C([2H])([2H])N1C(=O)c2cccc(OC(F)F)c2[C@H]2C[C@@H]1c1nc3ccc(C#Cc4ccc(P(C)(C)=O)nc4)cc3n12` [Example 112, (7R,14R)-1-(difluoromethoxy)-11-((6-(dimethylphosphoryl)pyridin-3-yl)ethynyl)-6-(methyl-d3)-6,7-dihydro-7,14-methanobenzo[f]benzo[4,5]imidazo[1,2-a][1,4]diazocin-5(14H)-one] gave an IC50 (read-out: IC50 value) of less than 100 nM.

With `[2H]C([2H])([2H])N1C(=O)c2cccc(OC(F)F)c2[C@H]2C[C@@H]1c1nc3ccc(C#CC4CC(N)C4)cc3n12` (stereo partly drawn) [Example 113, (7R,14R)-11-((3-aminocyclobutyl)ethynyl)-1-(difluoromethoxy)-6-(methyl-d3)-6,7-dihydro-7,14-methanobenzo[f]benzo[4,5]imidazo[1,2-a][1,4]diazocin-5(14H)-one] the IC50 (read-out: IC50 value) was less than 100 nM.

With `[2H]C([2H])([2H])N1C(=O)c2cccc(OC(F)F)c2[C@H]2C[C@@H]1c1nc3ccc(C#CCCCN4CCOCC4)cc3n12` [Example 114, (7R,14R)-1-(difluoromethoxy)-6-(methyl-d3)-11-(5-morpholinopent-1-yn-1-yl)-6,7-dihydro-7,14-methanobenzo[f]benzo[4,5]imidazo[1,2-a][1,4]diazocin-5(14H)-one] the IC50 (read-out: IC50 value) was less than 100 nM.

In the case of `[2H]C([2H])([2H])N1C(=O)c2cccc(OC(F)F)c2[C@H]2C[C@@H]1c1nc3ccc(C#CCOC4CCN(C)CC4)cc3n12` [Example 115, (7R,14R)-1-(difluoromethoxy)-6-(methyl-d3)-11-(3-((1-methylpiperidin-4-yl)oxy)prop-1-yn-1-yl)-6,7-dihydro-7,14-methanobenzo[f]benzo[4,5]imidazo[1,2-a][1,4]diazocin-5(14H)-one], the IC50 (read-out: IC50 value) is reported as less than 100 nM.

With `[2H]C([2H])([2H])N1C(=O)c2cccc(OC(F)F)c2[C@H]2C[C@@H]1c1nc3ccc(C#CCOC4CCN(C(=O)OC(C)(C)C)CC4)cc3n12` [Example 116, tert-butyl 4-((3-((7R,14R)-1-(difluoromethoxy)-6-(methyl-d3)-5-oxo-5,6,7,14-tetrahydro-7,14-methanobenzo[f]benzo[4,5]imidazo[1,2-a][1,4]diazocin-11-yl)prop-2-yn-1-yl)oxy)piperidine-1-carboxylate] the IC50 (read-out: IC50 value) was 1000 to 10000 nM.

`[2H]C([2H])([2H])N1C(=O)c2cccc(OC(F)F)c2[C@H]2C[C@@H]1c1nc3ccc(C#CCOC4CCNCC4)cc3n12` [Example 117, (7R,14R)-1-(difluoromethoxy)-6-(methyl-d3)-11-(3-(piperidin-4-yloxy)prop-1-yn-1-yl)-6,7-dihydro-7,14-methanobenzo[f]benzo[4,5]imidazo[1,2-a][1,4]diazocin-5(14H)-one] showed an IC50 (read-out: IC50 value) of 100 to 1000 nM.

`[2H]C([2H])([2H])N1C(=O)c2cccc(OC(F)F)c2[C@H]2C[C@@H]1c1nc3ccc(C#CC4CN(CC)C4)cc3n12` [Example 118, (7R,14R)-1-(difluoromethoxy)-11-((1-ethylazetidin-3-yl)ethynyl)-6-(methyl-d3)-6,7-dihydro-7,14-methanobenzo[f]benzo[4,5]imidazo[1,2-a][1,4]diazocin-5(14H)-one] gave an IC50 (read-out: IC50 value) of less than 100 nM.

For `[2H]C([2H])([2H])N1C(=O)c2cccc(OC(F)F)c2[C@H]2C[C@@H]1c1nc3ccc(C#CC4CN(C(C)C)C4)cc3n12` [Example 119, (7R,14R)-1-(difluoromethoxy)-11-((1-isopropylazetidin-3-yl)ethynyl)-6-(methyl-d3)-6,7-dihydro-7,14-methanobenzo[f]benzo[4,5]imidazo[1,2-a][1,4]diazocin-5(14H)-one], the IC50 (read-out: IC50 value) was less than 100 nM.

With `[2H]C([2H])([2H])N1C(=O)c2cccc(OC(F)F)c2[C@H]2C[C@@H]1c1nc3ccc(C#CC4CN(C(C)=O)C4)cc3n12` [Example 120, (7R,14R)-11-((1-acetylazetidin-3-yl)ethynyl)-1-(difluoromethoxy)-6-(methyl-d3)-6,7-dihydro-7,14-methanobenzo[f]benzo[4,5]imidazo[1,2-a][1,4]diazocin-5(14H)-one] the IC50 (IC50 value) was less than 100 nM.

`[2H]C([2H])([2H])N1C(=O)c2cccc(OC(F)F)c2[C@H]2C[C@@H]1c1nc3ccc(C#CC4CN(S(C)(=O)=O)C4)cc3n12` [Example 121, (7R,14R)-1-(difluoromethoxy)-6-(methyl-d3)-11-((1-(methylsulfonyl)azetidin-3-yl)ethynyl)-6,7-dihydro-7,14-methanobenzo[f]benzo[4,5]imidazo[1,2-a][1,4]diazocin-5(14H)-one] gave an IC50 (read-out: IC50 value) of less than 100 nM.

Compound `[2H]C([2H])([2H])N1C(=O)c2cccc(OC(F)F)c2[C@H]2C[C@@H]1c1nc3ccc(C#CCCN)cc3n12` [Example 123, (7R,14R)-11-(4-aminobut-1-yn-1-yl)-1-(difluoromethoxy)-6-(methyl-d3)-6,7-dihydro-7,14-methanobenzo[f]benzo[4,5]imidazo[1,2-a][1,4]diazocin-5(14H)-one] has an IC50 (read-out: IC50 value) of 100 to 1000 nM.

Compound `[2H]C([2H])([2H])N1C(=O)c2cccc(OC(F)F)c2[C@H]2C[C@@H]1c1nc3ccc(C#CC4CN(CC(F)(F)F)C4)cc3n12` [Example 124, (7R,14R)-1-(difluoromethoxy)-6-(methyl-d3)-11-((1-(2,2,2-trifluoroethyl)azetidin-3-yl)ethynyl)-6,7-dihydro-7,14-methanobenzo[f]benzo[4,5]imidazo[1,2-a][1,4]diazocin-5(14H)-one] has an IC50 (read-out: IC50 value) of less than 100 nM.

`[2H]C([2H])([2H])N1C(=O)c2cccc(OC(F)F)c2[C@H]2C[C@@H]1c1nc3ccc(C#CC4CN(C(=O)C(C)(C)C)C4)cc3n12` [Example 125, (7R,14R)-1-(difluoromethoxy)-6-(methyl-d3)-11-((1-pivaloylazetidin-3-yl)ethynyl)-6,7-dihydro-7,14-methanobenzo[f]benzo[4,5]imidazo[1,2-a][1,4]diazocin-5(14H)-one] was tested, and the IC50 (read-out: IC50 value) was less than 100 nM.

For `[2H]C([2H])([2H])N1C(=O)c2cccc(OC(F)F)c2[C@H]2C[C@@H]1c1nc3ccc(C#CC4CN(C(=O)C(C)(C)O)C4)cc3n12` [Example 126, (7R,14R)-1-(difluoromethoxy)-11-((1-(2-hydroxy-2-methylpropanoyl)azetidin-3-yl)ethynyl)-6-(methyl-d3)-6,7-dihydro-7,14-methanobenzo[f]benzo[4,5]imidazo[1,2-a][1,4]diazocin-5(14H)-one], the IC50 (read-out: IC50 value) was less than 100 nM.

`[2H]C([2H])([2H])N1C(=O)c2cccc(OC(F)F)c2[C@H]2C[C@@H]1c1nc3ccc(C#CC4CN(C(=O)C5CC5)C4)cc3n12` [Example 127, (7R,14R)-11-((1-(cyclopropanecarbonyl)azetidin-3-yl)ethynyl)-1-(difluoromethoxy)-6-(methyl-d3)-6,7-dihydro-7,14-methanobenzo[f]benzo[4,5]imidazo[1,2-a][1,4]diazocin-5(14H)-one] gave an IC50 (read-out: IC50 value) of less than 100 nM.

`[2H]C([2H])([2H])N1C(=O)c2cccc(OC(F)F)c2[C@H]2C[C@@H]1c1nc3ccc(C#C[C@@H](C)CO)cc3n12` [Example 128, (7R,14R)-1-(difluoromethoxy)-11-((R)-4-hydroxy-3-methylbut-1-yn-1-yl)-6-(methyl-d3)-6,7-dihydro-7,14-methanobenzo[f]benzo[4,5]imidazo[1,2-a][1,4]diazocin-5(14H)-one] gave an IC50 (read-out: IC50 value) of less than 100 nM.

For `[2H]C([2H])([2H])N1C(=O)c2cccc(OC(F)F)c2[C@H]2C[C@@H]1c1nc3ccc(C#C[C@H](C)CO)cc3n12` [Example 129, (7R,14R)-1-(difluoromethoxy)-11-((S)-4-hydroxy-3-methylbut-1-yn-1-yl)-6-(methyl-d3)-6,7-dihydro-7,14-methanobenzo[f]benzo[4,5]imidazo[1,2-a][1,4]diazocin-5(14H)-one], the IC50 (read-out: IC50 value) was less than 100 nM.

For `[2H]C([2H])([2H])N1C(=O)c2cccc(OC(F)F)c2[C@H]2C[C@@H]1c1nc3ccc(C#CC4(CO)CC4)cc3n12` [Example 130, (7R,14R)-1-(difluoromethoxy)-11-((1-(hydroxymethyl)cyclopropyl)ethynyl)-6-(methyl-d3)-6,7-dihydro-7,14-methanobenzo[f]benzo[4,5]imidazo[1,2-a][1,4]diazocin-5(14H)-one], the IC50 (read-out: IC50 value) was 100 to 1000 nM.

`[2H]C([2H])([2H])N1C(=O)c2cccc(OC(F)F)c2[C@H]2C[C@@H]1c1nc3ccc(C#CCOC(F)F)cc3n12` [Example 131, (7R,14R)-1-(difluoromethoxy)-11-(3-(difluoromethoxy)prop-1-yn-1-yl)-6-(methyl-d3)-6,7-dihydro-7,14-methanobenzo[f]benzo[4,5]imidazo[1,2-a][1,4]diazocin-5(14H)-one] gave an IC50 (read-out: IC50 value) of less than 100 nM.

For `[2H]C([2H])([2H])N1C(=O)c2cccc(OC(F)F)c2[C@H]2C[C@@H]1c1nc3ccc(C#CCCC(F)F)cc3n12` [Example 132, (7R,14R)-1-(difluoromethoxy)-11-(5,5-difluoropent-1-yn-1-yl)-6-(methyl-d3)-6,7-dihydro-7,14-methanobenzo[f]benzo[4,5]imidazo[1,2-a][1,4]diazocin-5(14H)-one], the IC50 (read-out: IC50 value) was less than 100 nM.

For `[2H]C([2H])([2H])N1C(=O)c2cccc(OC(F)F)c2[C@H]2C[C@@H]1c1nc3ccc(C#CCCCN4CCN(C)CC4)cc3n12` [Example 133, (7R,14R)-1-(difluoromethoxy)-6-(methyl-d3)-11-(5-(4-methylpiperazin-1-yl)pent-1-yn-1-yl)-6,7-dihydro-7,14-methanobenzo[f]benzo[4,5]imidazo[1,2-a][1,4]diazocin-5(14H)-one], the IC50 (read-out: IC50 value) was 100 to 1000 nM.

Compound `[2H]C([2H])([2H])N1C(=O)c2cccc(OC(F)F)c2[C@H]2C[C@@H]1c1nc3ccc(C#CCCN4CCN(C)CC4)cc3n12` [Example 134, (7R,14R)-1-(difluoromethoxy)-6-(methyl-d3)-11-(4-(4-methylpiperazin-1-yl)but-1-yn-1-yl)-6,7-dihydro-7,14-methanobenzo[f]benzo[4,5]imidazo[1,2-a][1,4]diazocin-5(14H)-one] has an IC50 (read-out: IC50 value) of less than 100 nM.
